Legend:
UACC-62 = experiment: NCI-60 five-dose assay; assay type: cell-based, human; settings: UACC-62, Melanoma
OVCAR-8 = experiment: NCI-60 one-dose assay; assay type: cell-based; settings: Homo sapiens, OVCAR-8 (ovarian cancer), read-out: Cell Inhibition Percent
OVCAR-3 = experiment: NCI-60 one-dose assay; assay type: cell-based; settings: Homo sapiens, OVCAR-3 (ovarian cancer), read-out: Cell Inhibition Percent
SW-620 = experiment: NCI-60 one-dose assay; assay type: cell-based; settings: Homo sapiens, SW-620 (Colon Cancer), read-out: Cell Inhibition Percent
SK-MEL-5 = experiment: NCI-60 one-dose assay; assay type: cell-based; settings: Homo sapiens, SK-MEL-5 (Melanoma), read-out: Cell Inhibition Percent
SNB-75 = experiment: NCI-60 one-dose assay; assay type: cell-based; settings: Homo sapiens, SNB-75 (CNS cancer), read-out: Cell Inhibition Percent
NCI-H23 = experiment: NCI-60 one-dose assay; assay type: cell-based; settings: Homo sapiens, NCI-H23 (Non-Small Cell Lung Cancer), read-out: Cell Inhibition Percent
CCRF-CEM = experiment: NCI-60 one-dose assay; assay type: cell-based; settings: Homo sapiens, CCRF-CEM (Leukemia), read-out: Cell Inhibition Percent
MDA-MB 231 = experiment: NCI-60 one-dose assay; assay type: cell-based; settings: Homo sapiens, MDA-MB 231 (Breast Cancer), read-out: Cell Inhibition Percent
SK-MEL-2 = experiment: NCI-60 one-dose assay; assay type: cell-based; settings: Homo sapiens, SK-MEL-2 (Melanoma), read-out: Cell Inhibition Percent
SF-539 = experiment: NCI-60 one-dose assay; assay type: cell-based; settings: Homo sapiens, SF-539 (CNS cancer), read-out: Cell Inhibition Percent
A549/ATCC = experiment: NCI-60 one-dose assay; assay type: cell-based; settings: Homo sapiens, A549/ATCC (Non-Small Cell Lung Cancer), read-out: Cell Inhibition Percent
MCF7 = experiment: NCI-60 one-dose assay; assay type: cell-based; settings: Homo sapiens, MCF7 (Breast Cancer), read-out: Cell Inhibition Percent
SK-MEL-28 = experiment: NCI-60 one-dose assay; assay type: cell-based; settings: Homo sapiens, SK-MEL-28 (Melanoma), read-out: Cell Inhibition Percent
HT29 = experiment: NCI-60 one-dose assay; assay type: cell-based; settings: Homo sapiens, HT-29, HT29 (Colon Cancer), read-out: Cell Inhibition Percent
SF-268 = experiment: NCI-60 one-dose assay; assay type: cell-based; settings: Homo sapiens, SF-268 (CNS cancer), read-out: Cell Inhibition Percent
COLO 205 = experiment: NCI-60 one-dose assay; assay type: cell-based; settings: Homo sapiens, COLO 205 (Colon Cancer), read-out: Cell Inhibition Percent
MOLT-4 = experiment: NCI-60 one-dose assay; assay type: cell-based; settings: Homo sapiens, MOLT-4 (Leukemia), read-out: Cell Inhibition Percent
PC-3 = experiment: NCI-60 one-dose assay; assay type: cell-based; settings: Homo sapiens, PC-3 (Prostate Cancer), read-out: Cell Inhibition Percent
SNB-19 = experiment: NCI-60 one-dose assay; assay type: cell-based; settings: Homo sapiens, SNB-19 (CNS cancer), read-out: Cell Inhibition Percent
TK-10 = experiment: NCI-60 one-dose assay; assay type: cell-based; settings: Homo sapiens, TK-10 (Renal Cancer), read-out: Cell Inhibition Percent
U251 = experiment: NCI-60 one-dose assay; assay type: cell-based; settings: Homo sapiens, U-251, U251 (CNS cancer), read-out: Cell Inhibition Percent
EKVX = experiment: NCI-60 one-dose assay; assay type: cell-based; settings: Homo sapiens, EKVX (Non-Small Cell Lung Cancer), read-out: Cell Inhibition Percent
RXF 393 = experiment: NCI-60 one-dose assay; assay type: cell-based; settings: Homo sapiens, RXF 393 (Renal Cancer), read-out: Cell Inhibition Percent
UACC-257 = experiment: NCI-60 one-dose assay; assay type: cell-based; settings: Homo sapiens, UACC-257 (Melanoma), read-out: Cell Inhibition Percent
IGROV1 = experiment: NCI-60 one-dose assay; assay type: cell-based; settings: Homo sapiens, IGROV-1, IGROV1 (ovarian cancer), read-out: Cell Inhibition Percent
NCI/ADR-RES = experiment: NCI-60 one-dose assay; assay type: cell-based; settings: Homo sapiens, NCI/ADR-RES (ovarian cancer), read-out: Cell Inhibition Percent
NCI-H226 = experiment: NCI-60 one-dose assay; assay type: cell-based; settings: Homo sapiens, NCI-H226 (Non-Small Cell Lung Cancer), read-out: Cell Inhibition Percent
SF-295 = experiment: NCI-60 one-dose assay; assay type: cell-based; settings: Homo sapiens, SF-295 (CNS cancer), read-out: Cell Inhibition Percent
MALME-3M = experiment: NCI-60 one-dose assay; assay type: cell-based; settings: Homo sapiens, MALME-3M (Melanoma), read-out: Cell Inhibition Percent

COc1ccc(C=NNC(=O)c2ccc3[nH]c(-c4ccc(Cl)cc4)nc3c2)cc1 [Compound 4g, N′-(4-Methoxybenzylidene)-2-(4-chlorophenyl)-1H-benzimidazole-5-carbohydrazide]
GI50 (UACC-62; Homo sapiens, read-out: GI50 Conc. per Cell Line): 1.94 µM
CC50 (UACC-62; Homo sapiens, read-out: LC50 (the source's name)): 10.9 µM
TGI (UACC-62): 4.47 µM
inhibition at 10 µM (OVCAR-8): 68.7%
inhibition at 10 µM (OVCAR-3): 79.9%
inhibition at 10 µM (SW-620): 75.6%
inhibition at 10 µM (SK-MEL-5): 66.3%
inhibition at 10 µM (SNB-75): 8.15%
inhibition at 10 µM (NCI-H23): 58.5%
inhibition at 10 µM (CCRF-CEM): 34.7%
inhibition at 10 µM (MDA-MB 231): 60.2%
inhibition at 10 µM (SK-MEL-2): 35.9%
inhibition at 10 µM (SF-539): 57.4%
inhibition at 10 µM (A549/ATCC): 88%
inhibition at 10 µM (MCF7): 83.3%
inhibition at 10 µM (SK-MEL-28): 87.5%
inhibition at 10 µM (HT29): 78.1%
inhibition at 10 µM (SF-268): 80.1%
inhibition at 10 µM (COLO 205): 77.1%
inhibition at 10 µM (MOLT-4): 31.8%
inhibition at 10 µM (PC-3): 104%
inhibition at 10 µM (SNB-19): 75.8%
inhibition at 10 µM (TK-10): 60.9%
inhibition at 10 µM (U251): 92%
inhibition at 10 µM (EKVX): 70.6%
inhibition at 10 µM (RXF 393): 56.2%
inhibition at 10 µM (UACC-257): 45.6%
inhibition at 10 µM (IGROV1): 85.4%
inhibition at 10 µM (NCI/ADR-RES): 26.4%
inhibition at 10 µM (NCI-H226): 26.2%
inhibition at 10 µM (SF-295): 139%
inhibition at 10 µM (MALME-3M): 93.5%
